Where “and” joins values, the source holds several entries; their conditions need not be identical. Equal values may be shown once.
What was measured:
[1] = Titer against GD3 (ELISA) of antiserum from mice immunized with MAP peptides (Example 4); format: in vivo, mice (C57BL/6); details: for reactivity of antiserum with GD3 (ELISA absorbance): individual mice
Description: Four species of GD3-mimetic peptide (MAP) obtained in Example 3 (2) was dissolved in PBS so as to attain a concentration of 200 μg/mL. The solution was added to Freund's complete (or incomplete) adjuvant (1:1, by volume), to thereby prepare an emulsion.
Eight mice (C57BL/6) were immunized by subcutaneous administration of the above emulsion (0.2 mL/mouse, in one administration, […]). Administration was performed every two weeks (for the second and subsequent administrations, Freund's incomplete adjuvant was used). After one week following respective administrations, blood was collected from the tail of each mouse, to thereby yield antiserum.
The antiserum obtained directly after the first administration will be referred to “1-st,” that obtained after the second administration will be referred to “2-nd,” and that obtained after the third administration will be referred to “3-rd.”
The titer, against GD3, of each of the antiserum samples (3×8 mice=24 samples) obtained in the (1) above was measured through ELISA as described below.
The thus-obtained purified GD3 was dissolved in methanol, whereby a GD3 solution having a concentration of 10 μg/mL was prepared. The GD3 solution was added to the wells of a 96-well micro-titer plate in amounts of 10 μL per well (which corresponds to 100 ng GD3 per well), and methanol was evaporated. Subsequently, a blocking solution (TBS supplemented with 1% BSA) was added to the wells in amounts of 50 μL per well, for blocking at 37° C. for 4 hours.
The supernatant was discarded. Each of the antiserum samples obtained in (1) above was diluted 100-fold, 400-fold, or 1,600 fold with the above-mentioned blocking solution. The diluted antiserum (50 μL) was added to each well for reaction at 4° C. overnight. The well was washed six times with TBS, and thereafter, HRP-labeled […] diluted 5,000-fold with the blocking solution was added (50 μL per well) for reaction for 2 hours at room temperature. The well was washed four times with TBS, and thereafter, enzymatic activity (peroxidase) of the well was detected with TMB solution (50 μL). The reaction was stopped with 1N HCl (50 μL), and the value corresponding to “420 nm-620 nm” was calculated.
A control sample was prepared as follows. […] The synthesized peptide was administered to a mouse for immunization, and the obtained antiserum served as a control sample. The titer of the control sample was obtained in a manner similar to that described above. (However, the number of provided mice was five, and only a 100-fold diluted solution was used.) This control peptide sample was also used in the form of MAP as described above.

anti-GD3 antibody 4F6 = assay: ELISA of MAPs immobilized at various amounts with 4F6 (Example 5(2), FIG. 3); format: binding, mouse; details: MAPs or GD3 immobilized at various amounts
Description: (1) In a manner similar to that described in Example 3, peptides of N-terminus 9 amino acid residues or C-terminus 9 amino acid residues of GD3R1, GD3R2, GD3R3, or GD3R4. The nomenclature and sequences of respective peptides employed in the present test are shown in FIG. 2 These were employed as multi-antigen peptides (MAPs). (2) In order to extend the research on bonding between the anti-GD3 antibody 4F6 and each of the GD3-mimetic peptides shown in FIG. 1, multi-antigen peptides (MAPs) were subjected to ELISA. MAP samples having a variety of concentrations shown on the X-axis in FIG. 3 were provided, and each sample was immobilized onto the wells of a 96-well plate. Subsequently, the wells were blocked with a blocking solution (TBS supplemented with 1% BSA, 0.1% skim milk, and 0.02% Tween 20) at 4° C. overnight. 4F6 (hybridoma supernatant: used in the neat form) was added (100 μL/well) for reaction at room temperature for 2 hours. After completion of reaction, the supernatant was discarded, and the wells were washed with a washing solution (TBS supplemented with 1% FBS and 0.05% Tween 20) six times. Subsequently, the wells were allowed to react with peroxidase-labeled anti-mouse IgG (diluted 1,000-fold with a blocking solution) at room temperature for 2 hours. The wells were again washed with a washing solution four times, and the amount of peroxidase enzyme remaining in each well was detected and quantitatively determined with the substrate TMB, whereby binding of MAP to 4F6 was investigated. The test was performed in triplicate, and the values in the graph are “mean ±SD.”

[2] = tested on: binding between GD3 and 4F6 (anti-GD3 antibody); assay: Inhibition by immobilized MAPs of binding between GD3 and 4F6 (Example 5(3), FIG. 4); set-up: species or system mouse; details: immobilized MAP or GD3 absorbs 4F6
Description: (3) The binding affinity shown in FIG. 3 was investigated in another method. Briefly, MAP samples having a variety of concentrations shown on the X-axis in FIG. 4 were provided. Each sample was immobilized onto the wells of a 96-well plate, and the wells were allowed to react with 4F6 (100 μL/well) at 4° C. overnight. On the following day, the supernatant (80 μL) was collected and added to the wells of another plate to which GD3 had been immobilized in advance (100 ng/well) for reaction at room temperature for 2 hours. After completion of reaction, the amount of antibody 4F6 that had been condensed with GD3 (i.e., that had not been absorbed by MAP) was detected and quantitatively determined through the method described (2) above, whereby inhibitory effect of MAP on binding of GD3 to 4F6 was investigated. The test was performed in triplicate, and the values in the graph are “mean ±SD.”

[3] = tested on: binding between GD3 and 4F6; assay: Inhibition by exogenously added MAPs of binding between GD3 and 4F6 (Example 5(4), FIG. 5); set-up: species or system mouse; details: for inhibitory effect of exogenously added sample on binding between GD3 and 4F6 (words, FIG. 5): added simultaneously with 4F6 to GD3 100 ng/well; for order of binding strength to 4F6: deduced from FIG. 5
Description: (4) Next, investigation was made as to whether binding between GD3R3 or GD3R4 and 4F6 occurred at the GD3 binding site of 4F6. To the wells of a plate to which GD3 had been immobilized (100 ng/well), each of the MAP samples having a variety of concentrations shown on the X-axis in FIG. 5 and 4F6 (100 μL/well) were simultaneously added, whereby an inhibitory test was performed. The test was performed in triplicate, and the values in the graph are “mean ±SD.”

[4] = antiserum 1st (after first administration), dilution factor 1/100, MAP 5 μg/mouse s.c.
[5] = antiserum 1st, dilution factor 1/400
[6] = antiserum 1st, dilution factor 1/1600
[7] = antiserum 2nd (after second administration), dilution factor 1/100
[8] = antiserum 2nd, dilution factor 1/400
[9] = antiserum 2nd, dilution factor 1/1600
[10] = antiserum 3rd (after third administration), dilution factor 1/100
[11] = antiserum 3rd, dilution factor 1/400
[12] = antiserum 3rd, dilution factor 1/1600

Sequence	reactivity of antiserum with GD3 (ELISA absorbance) [1, 4]	reactivity of antiserum with GD3 (ELISA absorbance) [1, 5]	reactivity of antiserum with GD3 (ELISA absorbance) [1, 6]	reactivity of antiserum with GD3 (ELISA absorbance) [1, 7]	reactivity of antiserum with GD3 (ELISA absorbance) [1, 8]	reactivity of antiserum with GD3 (ELISA absorbance) [1, 9]	reactivity of antiserum with GD3 (ELISA absorbance) [1, 10]	reactivity of antiserum with GD3 (ELISA absorbance) [1, 11]	reactivity of antiserum with GD3 (ELISA absorbance) [1, 12]	reactivity of antiserum with GD3 ([1]; peptide used as immunogen (MAP))	binding of 4F6 to immobilized sample (words, FIG. 3) (anti-GD3 antibody 4F6)	inhibition of GD3 binding to 4F6 by immobilized sample (words, FIG. 4) [2]	inhibitory effect of exogenously added sample on binding between GD3 and 4F6 (words, FIG. 5) [3]	order of binding strength to 4F6 [3]	binding to anti-GD3 antibody 4F6, overall conclusion ([3]; taken together, Example 5)
LAPPRPRSELVFLSV (LAPPRPRSQLVFLSV) [GD3R1, tested as phage clone, MAP form or peptide]	0.047 and 0.106 and 0.03 and 0.055 and 0.059 and 0.061 and 0.034 and 0.052	0.026 and 0.057 and 0.024 and 0.052 and 0.034 and 0.027 and 0.017 and 0.039	0 (3×) and 0.005 and 0.008 and 0.016 and 0.004 and 0.007	0.087 and 0.14 and 0.188 and 0.102 and 0.117 and 0.168 and 0.054 and 0.082	0.027 and 0.063 and 0.088 and 0.074 and 0.047 and 0.06 and 0.039 and 0.026	0.016 and 0.022 and 0.034 and 0.019 (2×) and 0.014 and 0.024 and 0.01	0.068 and 0.066 and 0.084 (2×) and 0.139 and 0.121 and 0.08 and 0.023	0.019 and 0.017 and 0.03 (2×) and 0.054 and 0.021 and 0.051 and 0.01	0 (2×) and 0.002 and 0.008 and 0.003 (2×) and 0.001 and 0.004						
RHAYRSMAEWGFLYS (RHAYRSMAQWGFLYS) [GD3R4, tested as phage clone, MAP form or peptide]	0.071 and 0.247 and 0.086 (2×) and 0.08 and 0.063 and 0.082 and 0.042	0.047 and 0.108 and 0.033 and 0.041 and 0.034 and 0.037 and 0.032 and 0.021	0.014 (2×) and 0.052 and 0.009 and 0.008 and 0.006 and 0.012 and 0.007	0.08 and 0.164 and 0.195 and 0.153 and 0.124 and 0.147 and 0.05 and 0.122	0.07 and 0.114 and 0.128 and 0.093 and 0.106 and 0.079 and 0.057 and 0.058	0.022 and 0.026 and 0.062 and 0.033 and 0.031 and 0.041 and 0.013 and 0.019	0.088 and 0.176 and 0.253 and 0.19 and 0.168 and 0.113 and 0.147 and 0.116	0.042 and 0.093 and 0.111 and 0.104 and 0.098 and 0.045 and 0.061 and 0.053	0.008 and 0.029 and 0.026 and 0.022 and 0.039 and 0.013 (2×) and 0.024	high reactivity with GD3	in an amount-dependent manner	inhibit GD3 from binding to the antibody	did not	GD3>GD3R3>GD3R4	
GLAPPDYAERFELLS [GD3R3, tested as phage clone, MAP form or peptide]	0.105 and 0.062 (2×) and 0.098 and 0.051 and 0.04 and 0.165 and 0.169	0.077 and 0.004 and 0.048 and 0.016 and 0.026 and 0.067 and 0.071 and 0.083	0.009 and 0.016 and 0.006 and 0.023 and 0.003 and 0.031 and 0.015 and 0.017	0.116 and 0.098 and 0.08 (2×) and 0.165 and 0.132 and 0.135 and 0.179	0.078 and 0.079 and 0.112 and 0.118 and 0.088 (2×) and 0.076 and 0.054	0.025 (2×) and 0.034 and 0.022 and 0.027 and 0.018 and 0.07 and 0.024	0.126 and 0.143 and 0.069 and 0.189 (2×) and 0.073 and 0.098 and 0.047	0.039 and 0.032 and 0.028 and 0.073 and 0.033 and 0.03 and 0.023 and 0.022	0.027 and 0.026 and 0.018 (3×) and 0.017 and 0.013 and 0.016		in an amount-dependent manner	inhibit GD3 from binding to the antibody	exhibited inhibitory effect	GD3>GD3R3>GD3R4	the strongest in binding
PHFDSLLYPCELLGC (PHFDSLLYPCQLLGC) [GD3R2, tested as phage clone, MAP form or peptide]	0.042 and 0.114 and 0.087 and 0.155 and 0.076 and 0.084 and 0.316 and 0.062	0.031 and 0.068 and 0.05 and 0.078 and 0.055 and 0.044 and 0.252 and 0.035	0.053 and 0.028 (2×) and 0.045 and 0.014 and 0.034 and 0.179 and 0.022	0.183 and 0.135 and 0.142 and 0.131 and 0.115 and 0.072 and 0.069 and 0.34	0.078 and 0.049 and 0.071 and 0.034 and 0.091 and 0.039 and 0.047 and 0.241	0.039 and 0.035 and 0.025 and 0.016 (2×) and 0.033 and 0.034 and 0.13	0.08 and 0.053 and 0.057 and 0.184 and 0.09 and 0.05 and 0.098 and 0.113	0.075 and 0.053 and 0.084 and 0.161 and 0.089 and 0.059 and 0.086 and 0.099	0.023 (2×) and 0.014 and 0.008 and 0.053 and 0.028 and 0.012 and 0.036						

From patent US8017584B2, “GD3-mimetic peptides” (Otsuka Pharmaceutical Co., Ltd., priority 2000, dated 2011)
